Source: patent publication US8791084B2, “Inhibition of SOX9 function in the treatment of proteoglycan-associated pathophysiological conditions” (Robarts Research Institute, priority 2006, dated 2014)

How the values were obtained:
SOX9 [1] = test: SOX9 knock-down by anti-SOX9 siRNA transfection of primary astrocytes, mRNA levels by Q-PCR; assay type: cell-based, rat
Method: (§1) Primary astrocyte cultures were prepared from newborn rats at postnatal day 1 (P1) (Wilson and Dixon 1989). The upper portion of the skull was removed and the meninges carefully dissected away to avoid contamination of the culture with fibroblasts. The neocortices were removed, placed into serum-free advanced D-MEM (Dulbecco's Modified Eagle Medium, Invitrogen), homogenized by pipeting and gravity-filtered through 70 μm cell strainer (Falcon). The cells were plated onto 6-well dishes (Falcon). […] Cytokine treatments of primary astrocytes with PDGF, IL-6, TNFα and TGFβ2 (R and D systems) and bFGF2 (Invitrogen) were carried out for 12 hours. RNA was extracted using the Qiagen (Germany) RNA-easy kit following manufacturer's specifications. The transfections of primary astrocytes with SiRNAs and the CMV-SOX9 expression construct were conducted using Lipofectamine 2000 (Invitrogen) according to manufacturer's specifications in 6-well dishes (Falcon). The siRNA ([…]) (SEQ ID No. 4) was used at a concentration of 150 pM. The universal negative control scrambled SiRNA was used according to manufacturer's (Invitrogen) specifications. Transfection efficiencies with a fluorescently-tagged control SiRNA was 35%-40%. The CMV-SOX9 construct has previously been described (Foster et al. 1994; Lefebvre et al. 1997) and plasmid transfection efficiency estimated by cotransfection with a CMV-GFP construct was approximately 10%.
(§2) First strand cDNA was synthesized from 1 μg RNA per condition (cell culture or animal tissue) using the High Capacity cDNA Archive Kit according to the manufacturer protocol (Applied Biosystems Foster City Calif.). The primer probe sets, optical adhesive covers, and PCR plates were purchased from Applied Biosystems (Foster City, Calif.). The probes were labeled with 5′ FAM and with 3′TAMRA as quencher with the exception of the ribosomal probe, which was labeled with 5′ VIC. For Taq Man assays the thermal cycler conditions were 10 minutes at 95° C. followed by 40 cycles of 30 seconds at 95° C. followed by 30 seconds at 60° C. A standard curve of cycle thresholds using cDNA serial dilutions was established and used to calculate abundance of each target mRNA. Technical triplicates and at least biological triplicates were run on all conditions tested. Values were normalized to the amounts of 18S mRNA as determined by Q-PCR. The data were analyzed by a two way ANOVA following by a Bonferroni test with Dunn's correction for multiple comparisons or Dunnet's procedure when comparisons were made with a single variable (control). Student's t-test was used when only two groups were compared.
To test the effect of SOX9 knock-down on the expression of XT-I, XT-II and C4ST, a control (scrambled) small interfering RNA (SiRNA) or an anti-SOX9 SiRNA was transfected into primary astrocytes and mRNA levels of SOX9, XT-I, XT-II and C4ST were assayed by Q-PCR 12 hours later. […] (FIG. 7 E, F).

[2] = system: rat primary astrocyte cultures; test: Slot blot analysis of CSPG protein (CS56) in cytokine-treated primary astrocytes; assay type: cell-based
Method: as §1
Tissue and cell samples were lysed in RIPA buffer [20 mM, Tris-HCl (pH 7.6), 150 mM NaCl, 0.5% sodium deoxycholate, 1% Triton X-100, 0.1% SDS]. […] Immunoreactive bands were scanned by an imaging densitometer (BioRad GF-700 Imaging Densitometer, Mississauga, ON); and results were quantified using Multi-Analist software (BioRad, Mississauga, ON). […]
To evaluate TGFβ2, PDGF and IL-6 as candidate XT-I, XT-II and C4ST transcriptional regulators, rat primary astrocyte cultures were exposed to 1, 10 or 100 ng/ml of each cytokine. After a 12 hour cytokine exposure, XT-I, XT-II and C4ST mRNA levels were measured relative to untreated cultures by Q-PCR. […]

[3] = system: rat primary astrocyte cultures; test: Cytokine treatment of primary astrocyte cultures, mRNA levels by Q-PCR; assay type: cell-based; settings: for XT-II mRNA: 6 week-old primary astrocyte cultures, 1, 10 or 100 ng/ml cytokine, 12 hour exposure, relative to untreated cultures; for SOX9 mRNA levels: primary astrocyte cultures after cytokine treatments; for Fibronectin expression / Laminin expression: primary astrocyte cultures following cytokine treatments
Method: as §1, §2
To evaluate TGFβ2, PDGF and IL-6 as candidate XT-I, XT-II and C4ST transcriptional regulators, rat primary astrocyte cultures were exposed to 1, 10 or 100 ng/ml of each cytokine. After a 12 hour cytokine exposure, XT-I, XT-II and C4ST mRNA levels were measured relative to untreated cultures by Q-PCR. Six week-old cultures were used as, by this time point, the astrocytes are quiescent (as evidenced by reduced GFAP expression) and baseline levels of XT-I, XT-II and C4ST genes are low.
To test whether SOX9 regulates expression of XT-I, XT-II and C4ST in vitro, primary astrocytes were transfected with a SOX9 expression construct and assessed for CBG mRNA levels by Q-PCR 48 hours later. […] The levels of fibronectin and laminin mRNA in these same cultures were unaffected by SOX9 over-expression. To determine whether IL-6, PDGF and TGF[…]2 might increase XT-I, XT-II and C4ST gene expression by up-regulating SOX9 expression, the expression levels of SOX9 mRNA were assayed after these cytokine treatments in primary astrocyte cultures.

SOX9 [4] = test: SOX9 luciferase reporter construct assay in primary astrocytes; assay type: cell-based, rat
Source text: Astrocytes, such as wither primary astrocytes (rodent or human) or an established astrocyte cell line designated as Neu7 (Fok-Seang, Smith-Thomas et al. 1995), were transfected with a SOX9 reporter construct under standard conditions. The SOX9 reporter construct (a gift from Dr. Michael Underhill, University of British Columbia) has 4 repeats of the SOX9 binding site coupled to the mouse Col2a1 minimal promoter (−89 to +6) cloned upstream of a luciferase gene in the plasmid pGL4 (Promega) (Weston, Chandraratna et al. 2002). Changes in luciferase levels in transfected cultures is used as a read-out of SOX9 activity. The anti-SOX9 SiRNA previously used (or astrocytes from the SOX9 conditional knock out) is used as a positive control and the scrambled siRNA is used as a negative control for this screen. The screen is used to identify compounds that reduce the levels of luciferase activity relative to control wells. […]
Specifically, primary astrocytes obtained from newborn rats were cultured in 6-well dishes for 6 weeks in Advanced-DMEM with 10% FBS. […] Transfection efficiency was calculated by co-transfection with a control plasmid. […] Twenty-four hours after the TGF-β2 application the cells were lysed and luciferase activity was measured using the Luciferase Assay System (PROMEGA) (according to the manufacturer's protocol) and a luminometer.

[5] = SOX9 knock-down in primary astrocytes
[6] = TGFβ2-treated primary astrocytes
[7] = primary astrocytes, 12 hours after transfection, siRNA 150 pM
[8] = TGFβ2 treatment alone, primary astrocytes

Row | Substance | CSPG protein expression [2] | XT-II mRNA [3] | SOX9 mRNA levels [3] | Fibronectin expression [3] | Laminin expression [3] | also measured
1 | AAAGUUGUCGCUCCCACUGAAGUUU (listed as RNA, chemistry not given here) [anti-SOX9 siRNA, small interfering RNA against SOX9, used at 150 pM in primary astrocytes] | – | – | – | – | – | fibronectin gene expression (SOX9 [1]; [5]): did not decrease; laminin gene expression (SOX9 [1]; [5]): did not decrease; reduction in SOX9 mRNA levels (SOX9 [1]; [6]): 87±13%; reduction in XT-I mRNA (SOX9 [1]; [6]): 68±6.4%; reduction in SOX9 mRNA levels (SOX9 [1]; [7]): 75±12%; reduction in XT-I mRNA (SOX9 [1]; [7]): 71±5.5%
2 | IL-6: cytokine (R and D systems) used to treat primary astrocytes | increased expression | strong, concentration-dependent up-regulation | significant increase | similarly increased | similarly increased | –
3 | PDGF | increased expression | strong, concentration-dependent up-regulation | significant increase | similarly increased | similarly increased | –
4 | TGFβ2: cytokine (R and D systems) used to treat primary astrocytes | increased expression | strong, concentration-dependent up-regulation | significant increase | similarly increased | similarly increased | luciferase activity (SOX9 [4]; SOX9 luciferase reporter construct following treatment (FIG. 10)): increased; increase in luciferase activity (SOX9 [4]; TGF-β2 final concentration 10 nM, 24 hours, primary astrocytes from newborn rats cultured 6 weeks): ~2 fold; SOX9 mRNA levels (SOX9 [1]; [8]): increased; XT-1 mRNA levels (SOX9 [1]; [8]): increased
5 | bFGF: cytokine (Invitrogen) used to treat primary astrocytes | – | no effect | – | – | – | –
